Data on 16 compounds can be found in US11229657B2, “Targeting hypoxic cancer stem cells (CSCs) with doxycycline: implications for improving anti-angiogenic therapy” (LUNELLA BIOTECH, INC., priority 2017, dated 2022).

Like-named read-outs stand apart in the source and are kept apart here.

What all share (type): cell-based
The test system of experiment [1] is MCF7 cells. Put plainly: Mammosphere formation assay (CSC activity/propagation). To be noted: for IC50: Homo sapiens, MCF7, Valproic acid-augmented conditions, read-out: IC-50, Valproic acid-augmented CSC propagation; for IC50 / Valproic acid-augmented CSC propagation (mammosphere formation): FIG. 12C; for Valproic acid-augmented CSC propagation (mammosphere formation): glycolysis inhibitors; for basal and Valproic acid-augmented CSC propagation (mammosphere formation): FIG. 12A-B.
Method: Briefly, a single cell suspension of MCF7 cells previously exposed to normoxia (21% O2) or hypoxia (1% O2) for 6 h, 72 h or 96 h was prepared using enzymatic (lx Trypsin-EDTA, Sigma Aldrich) and manual disaggregation (25-gauge needle). Cells were plated at a density of 500 cells/cm^2 in mammosphere medium (DMEM-F12/B27/20-ng/ml EGF/PenStrep) in nonadherent conditions, in culture dishes coated with (2-hydroxyethylmethacrylate) (poly-HEMA, Sigma), in the presence of treatments. Cells were grown for 5 days and maintained in a humidified incubator at 37° C. at an atmospheric pressure in 5% (v/v) carbon dioxide/air. After five days of culturing, spheres greater than 50 μm in diameter were counted using an eye piece graticule, and the percentage of cells plated which formed spheres was calculated. Mammosphere assays were performed in triplicate and repeated three times independently.

In the next experiment the test system is CSC propagation. Put plainly: IC-50s of metabolic agents for inhibiting CSC propagation (Table 3). To be noted: read-out: IC-50 for inhibiting CSC propagation. As to the method: Glycolysis is required to provide additional TCA cycle intermediates for the mitochondrial processing of Acetyl-CoA. […] Briefly, 2-deoxy-D-glucose (2-DG) or ascorbic acid were dissolved in culture medium. […] Bonuccelli et al. Oncotarget, 8: 20667-20678 (2017). […] 15, 2017, and Patent Cooperation Treaty (PCT) Patent Application PCT/US2018/022403, filed Mar. 14, 2018, the entireties of which are incorporated herein by reference; mitoketoscins, such as those disclosed in U.S. Provisional Patent Application No. 62/524,829, filed Jun. 26, 2017, the entirety of which is incorporated herein by reference; mitoflavoscins, such as those disclosed in U.S. Provisional Patent Application No. 62/576,287, filed Oct. 24, 2017, the entirety of which is incorporated herein by reference; TPP-compounds (e.g., 2-butene-1,4-bis-TPP), such as those disclosed in U.S. Provisional Patent Application No. 62/590,432, filed Nov. 24, 2017, the entirety of which is incorporated herein by reference; mDIVI1, such as those disclosed in U.S. Provisional Patent Application No. 62/608,065, filed Dec. 20, 2017, the entirety of which is incorporated herein by reference; CAPE (caffeic acid phenyl ester); antimitoscins, such as those disclosed in 62/508,702, filed May 19, 2017, the entirety of which is incorporated herein by reference; repurposcins such as those disclosed in U.S. Provisional Patent Application No. 62/593,372, filed Dec. 1, 2017, the entirety of which is incorporated herein by reference; other known mitochondrial inhibitors.

The test system of experiment [2] is MCF7 cells. Put plainly: Mitochondrial mass by FACS with MitoTracker Deep-Red-FM. To be noted: increasing concentrations 0, 1, 2.5 and 5 mM; FIG. 11A. As to the method: The inventors examined the effects of chronic hypoxia and oxidative stress on the propagation of breast CSCs using MCF7 cells as a model system. It should be appreciated that other model systems may be used. Briefly, MCF7 cells were obtained from ATCC and cultured in DMEM (Sigma Aldrich). For hypoxic testing, MCF7 cells were cultured in low glucose DMEM in a multi-gas N2/CO2 hypoxic chamber at 1% 02. In parallel, MCF7 cells were cultured in low glucose DMEM at 21% 02 to serve as a normoxic control. […] Next, the MCF7 cells were trypsinized and subjected to fluorescence-activated cell sorting (FACS) with MitoTracker Deep-Red-FM (Life Technologies). MitoTracker Deep Red localizes to mitochondria regardless of mitochondrial membrane potential. Cells were incubated with pre-warmed MitoTracker staining solution (diluted in PBS/CM to a final concentration of 10 nM) for 30-60 min at 37° C. All subsequent steps were performed in the dark. Cells were washed in PBS, harvested, re-suspended in 300 μL of PBS and then analyzed by flow cytometry (Fortessa, BD Bioscience). Data analysis was performed using FlowJo software (Tree star Inc.). […] FIG. 2F is a representative FACS tracing showing 96 hours of hypoxia increased mitochondrial mass. The effects of hypoxia treatment were confirmed using immunoblot analysis with TOMM20, a marker of mitochondrial mass.
In general terms: Flow cytometry measures light scatter and fluorescence of single cells or particles in a stream.

Experiment [3] deals with MCF7 cells. Nature of the experiment: ALDH activity by FACS (ALDEFLUOR kit). To be noted: 2.5 mM; FIGS. 11C-D. On the procedure: The present approach further includes methods of analyzing the effects of hypoxia on CSCs by examining relative changes of CSC markers. For example, aldehyde dehydrogenase (ALDH) activity is routinely used as a marker for CSCs. It should be appreciated by those in the art that other CSC markers may be used. ALDH activity was assessed by FACS analysis in MCF7 cells cultured for 72 hours in normoxia (21% 02) or hypoxia (1% 02). The ALDEFLUOR kit (StemCell Technologies) was used to isolate the population with high ALDH enzymatic activity by FACS (Fortessa, BD Bioscence). Briefly, 1×10^5 MCF7 cells were incubated in 1 ml ALDEFLUOR assay buffer containing ALDH substrate (5 μl/ml) for 40 minutes at 37° C. In each experiment, a sample of cells was stained under identical conditions with 30 μM of diethylaminobenzaldehyde (DEAB), a specific ALDH inhibitor, as a negative control. The ALDEFLUOR-positive population was established in according to the manufacturer's instructions and was evaluated in 3×10^4 cells. Data analysis was performed using FlowJo software (Tree star Inc.).

Consider `CC(=O)O[C@H]1C(=O)[C@@]2(C)[C@H]([C@H](OC(=O)c3ccccc3)[C@]3(O)C[C@H](OC(=O)[C@H](O)[C@@H](NC(=O)c4ccccc4)c4ccccc4)C(C)=C1C3(C)C)[C@]1(OC(C)=O)CO[C@@H]1C[C@@H]2O` [Paclitaxel], for which, in the experiment on MCF7 cells [1] (MCF7 cells, FIGS. 5A-B), the “CSC resistance to treatment (measured by mammosphere formation)” value is given as “a fraction of CSCs is resistant”.
For `CCc1c2c(nc3ccc(OC(=O)N4CCC(N5CCCCC5)CC4)cc13)-c1cc3c(c(=O)n1C2)COC(=O)[C@]3(O)CC` [Irinotecan], the IC50 in the experiment on CSC propagation (Table 3, values given with nM) was 500 nM.
As to `CC[C@H]1OC(=O)[C@H](C)[C@@H](O[C@H]2C[C@@](C)(OC)[C@@H](O)[C@H](C)O2)[C@H](C)[C@@H](O[C@@H]2O[C@H](C)C[C@H](N(C)C)[C@H]2O)[C@](C)(O)C[C@@H](C)CN(C)[C@H](C)[C@@H](O)[C@]1(C)O` [Azithromycin], the IC50 with CSC propagation (Table 3, values in mM) was 50000 to 100000 nM.
For the compound `CC(C)(C)C(O)/C=C/c1ccc2c(c1)OCO2` (stereo not shown) [Stiripentol], the IC50 in the experiment on CSC propagation (Table 3, values in mM) fell in the range of 10000 to 50000 nM.
Turning to `O=C1O[C@H]([C@@H](O)CO)C(O)=C1O` [Vitamin C, ascorbic acid], in the experiment with MCF7 cells [1], the IC50 is roughly 500 µM and the “Valproic acid-augmented CSC propagation (mammosphere formation)” value is listed as “sufficient to inhibit”. Also, the “potency under Valproic acid-augmented conditions compared to basal conditions” value with MCF7 cells [1] (versus previously published results under basal conditions (Bonuccelli et al. 2017)) is “two times as potent”. Also, the IC50 in the experiment on CSC propagation (Table 3, values in mM) is 1e+06 nM.
With `COc1ccc2cc3[n+](cc2c1OC)CCc1cc2c(cc1-3)OCO2` [Berberine], the IC50 with CSC propagation (Table 3, values in mM) was 1000 nM.
For `O=CC[C@@H](O)[C@H](O)[C@H](O)CO` [2-DG, 2-deoxy-D-glucose], in the experiment with MCF7 cells [1], the IC50 came to 1000 µM and the “Valproic acid-augmented CSC propagation (mammosphere formation)” value is given as “sufficient to inhibit”. Further, the IC50 with CSC propagation (Table 3, values in mM) was in the range of 1e+07 to 2e+07 nM.
On to `COc1nc2ccc(Br)cc2cc1[C@@H](c1ccccc1)[C@@](O)(CCN(C)C)c1cccc2ccccc12` [Bedaquiline], for which the IC50 in the experiment with CSC propagation (Table 3, values in mM) is 1000 nM.
With `C1CCC(C(CC2CCCCN2)C2CCCCC2)CC1` (stereo not shown) [Perhexiline], in the experiment on MCF7 cells [1], the “basal and Valproic acid-augmented CSC propagation (mammosphere formation)” value is given as “inhibit”. Also, the IC50 in the experiment with CSC propagation (Table 3, values given with nM) is less than 100 nM.
As to `O=C1C(O)=C([C@H]2CC[C@H](c3ccc(Cl)cc3)CC2)C(=O)c2ccccc21` [Atovaquone], the IC50 with CSC propagation (Table 3, values in mM) was found to be 1000 nM.
As to `O=C(Nc1ccc([N+](=O)[O-])cc1Cl)c1cc(Cl)ccc1O` [Niclosamide], the IC50 in the experiment with CSC propagation (Table 3, values given with nM) came out at 100 nM.
Turning to `CCOC(=O)[C@@]1(CCCCCCOc2ccc(Cl)cc2)CO1` [Etomoxir], the “basal and Valproic acid-augmented CSC propagation (mammosphere formation)” value with MCF7 cells [1] is “inhibit”. In addition, the IC50 in the experiment on CSC propagation (Table 3, values in mM) was less than 200000 nM.
For the compound `CNC(=O)c1cc(Oc2ccc(NC(=O)Nc3ccc(Cl)c(C(F)(F)F)c3)cc2)ccn1` [Sorafenib], the IC50 in the experiment on CSC propagation (Table 3, values in mM) was 500 to 1000 nM.
On the same count and under the same terms, then `C[C@H]1c2cccc(O)c2C(=O)C2=C(O)[C@]3(O)C(=O)C(C(N)=O)=C(O)[C@@H](N(C)C)[C@@H]3[C@@H](O)[C@@H]21` [Doxycycline], with 5000 nM.
On to `CCCC(CCC)C(=O)O` [Valproic acid], for which the mammosphere formation entry in the experiment on MCF7 cells [1] (MCF7 cells, FIG. 11B) is reported as “increases”. Besides, the “increase in mitochondrial mass” value in the experiment with MCF7 cells [2] is “up to 3 fold”. Further, the “increase in ALDH activity” value with MCF7 cells [3] is greater than 1.5 fold.
With `CCN(CC)CCCC(C)Nc1ccnc2cc(Cl)ccc12` (stereo not shown) [Chloroquine], the IC50 in the experiment on CSC propagation is less than 25000 nM.
